Molecular target: T1, human recombinant 5-lipoxygenase (Homo sapiens, UniProt P09917)
T1 construct: purchased Cayman 60402
T1 sequence (P09917 1-674): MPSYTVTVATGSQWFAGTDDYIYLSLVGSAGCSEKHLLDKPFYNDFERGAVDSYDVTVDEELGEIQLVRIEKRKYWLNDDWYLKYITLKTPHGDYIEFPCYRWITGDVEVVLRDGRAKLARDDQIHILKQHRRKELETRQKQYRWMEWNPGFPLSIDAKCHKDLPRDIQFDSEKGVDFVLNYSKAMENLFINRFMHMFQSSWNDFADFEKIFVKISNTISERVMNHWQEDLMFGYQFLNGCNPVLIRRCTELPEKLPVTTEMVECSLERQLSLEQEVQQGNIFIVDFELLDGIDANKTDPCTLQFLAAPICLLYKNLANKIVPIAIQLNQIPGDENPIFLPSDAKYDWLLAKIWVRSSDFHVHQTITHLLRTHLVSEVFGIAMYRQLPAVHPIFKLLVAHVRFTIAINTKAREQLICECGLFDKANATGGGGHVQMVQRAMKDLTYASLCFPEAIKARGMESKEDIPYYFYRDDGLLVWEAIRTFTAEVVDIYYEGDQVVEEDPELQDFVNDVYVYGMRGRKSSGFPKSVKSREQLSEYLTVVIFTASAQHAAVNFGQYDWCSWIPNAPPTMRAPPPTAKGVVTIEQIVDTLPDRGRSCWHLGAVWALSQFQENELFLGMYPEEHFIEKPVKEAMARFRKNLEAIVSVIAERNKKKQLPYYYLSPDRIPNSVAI
Experiment: 5-Lipoxygenase enzyme assay
Assay type: biochemical
Conditions: 70 μM arachidonic acid, pH 7.4, 10 minute incubation; read-out: IC50, inhibition of 5-Lipoxygenase
Description: In vitro evaluation of the ability of a composition to inhibit the enzymes 5-lipoxygenase, 15-lipoxygenase, or 12/15 lipoxygenase as described in Walidge, N. B. et al Anal. Biochem., 231: 354-358 (1995) using a high throughput colorimetric method; as well as in vitro evaluation of inhibiting LTB4 is described in Examples.
This procedure was used for measuring the enzymatic activity of human recombinant 5-lipoxygenase using a colorimetric method based on the ferric oxidation of xylenol orange.
• 96 well flat bottom microfilter plates (VWR, Catalog #62402-933 9295) • Lipoxygenase screening assay buffer (Cayman, Catalog #760710) • Human recombinant 5-lipoxygenase (Cayman, Catalog #60402) • Arachidonic Acid (Sigma, Catalog #A3555) • Xylenol orange tetrasodium salt (Aldrich, Catalog #227854) • Iron (II) sulfate heptahydrate (Sigma, Catalog #F7002) • Sulfuric acid (95-98%) [18M]—Methanol Procedure
Human recombinant 5-lipoxygenase (Cayman Cat #60402) was used in this assay. The test compound and/or vehicle was added to 0.51-1 5-lipoxygenase in 50 mM Tris-HCl buffer, pH 7.4. The reaction was initiated by addition of 70 μM arachidonic acid in Tris-HCl buffer, pH 7.4, and terminated after a 10 minute incubation at room temperature by addition of FOX reagent (25 mM sulphuric acid, 100 μM xylenol orange, 100 μM iron (II) sulphate, methanol:water 9:1). The yellow color of acidified xylenol orange was converted to a blue color by the lipid hydroperoxide-mediated oxidation of Fe 2+ ions and the interaction of the resulting Fe 3+ ions with the dye. The complex was allowed to form during a 1 hour incubation at room temperature with shaking. Absorbance of the Fe 3+ complex was then measured at […] using a spectrophotometer.
Negative controls contained enzyme during the incubation step but substrate was not added until after the FOX reagent.
Compounds were screened at 5 concentrations in triplicate starting at 10 μM

SMILES | IC50 [µM]
C=CCSCc1c(O)c(C)c(C)c2c1CCC(C)(C)O2 [5-Allylsulfanylmethyl-2,2,7,8-tetramethyl-chroman-6-ol] | < 1
Cc1c(C)c2c(c(C)c1O)CCC(C)(C=C(Br)Br)O2 (centres unmarked) [2-(2,2-Dibromo-vinyl)-2,5,7,8-tetramethyl-chroman-6-ol] | < 1
